# According to patent US20260200926A1, “TREM2 MODULATORS” (Muna Therapeutics ApS, priority 2022, published 2026):
# Where two headings read alike, the source gives them in different places.
# Biological target: T1, Human TREM2 (Homo sapiens, UniProt Q9NZC2)
# T1 construct: expressed in transfected cells
# Assay: Human TREM2 activity: cellular phosphorylation of Syk (AlphaLISA SureFire Ultra p-SYK) in HEK293/DAP12+TREM2 stable cell line
# Format: cell-based
# Details: for Emax: HEK293; for EC50: phospho-Syk AlphaLISA signal, HEK293/DAP12+TREM2 cells, concentration giving 50% of maximal response, read-out: EC50
# Method in brief: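 The read-out was p-Syk (Tyr525/526), measured by AlphaLISA in lysates of a stable HEK293/DAP12+TREM2 clone. Cells (10,000/well, plated the day before) received compound for 30 min at 37 °C. Dosing used 8 points in quadruplicate, top 100 μM with 1:6 dilution, 0.5% final DMSO.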
# [1] = maximal response relative to reference agonist example 1B (remaining examples), read-out: Emax
# T1 sequence (Q9NZC2 19-230): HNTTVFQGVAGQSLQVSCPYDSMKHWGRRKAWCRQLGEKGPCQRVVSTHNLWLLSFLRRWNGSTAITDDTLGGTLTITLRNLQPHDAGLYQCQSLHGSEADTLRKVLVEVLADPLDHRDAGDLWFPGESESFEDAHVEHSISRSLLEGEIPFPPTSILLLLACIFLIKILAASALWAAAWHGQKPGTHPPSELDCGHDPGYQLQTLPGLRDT
# T1 sequence (O43914 22-113 partner): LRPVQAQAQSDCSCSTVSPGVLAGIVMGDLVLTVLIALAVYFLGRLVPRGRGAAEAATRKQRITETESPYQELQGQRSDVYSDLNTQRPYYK
Emax [1],EC50,SMILES,Emax
< 75%,100 to 1000 nM,"Cc1nc2c(-c3ccc(C(F)(F)F)cc3F)nc(N3C[C@H](c4cnn(C)c4)OC4(CCC4)C3)cc2c(=O)n1C (single isomer, unassigned) [Example 143B]",
75 to 110%,1 to 10 nM,"Cc1nc2c(-c3ccc(Cl)cc3F)nc(N3C[C@@H](c4cnn(C)c4)OC4(CC4)C3)cc2c(=O)n1C (single isomer, unassigned) [Example 144A]",
< 75%,10 to 100 nM,"Cc1nc2c(-c3ccc(Cl)cc3F)nc(N3C[C@H](c4cnn(C)c4)OC4(CC4)C3)cc2c(=O)n1C (single isomer, unassigned) [Example 144B]",
75 to 110%,1 to 10 nM,"Cc1nc2c(-c3ccc(C(F)(F)F)cc3F)nc(N3C[C@@H](c4cnn(C)c4)OC4(CC4)C3)cc2c(=O)n1C (single isomer, unassigned) [Example 145A]",
< 75%,10 to 100 nM,"Cc1nc2c(-c3ccc(C(F)(F)F)cc3F)nc(N3C[C@H](c4cnn(C)c4)OC4(CC4)C3)cc2c(=O)n1C (single isomer, unassigned) [Example 145B]",
75 to 110%,10 to 100 nM,"Cc1nc2c(-c3cc(F)c(F)cc3F)nc(N3C[C@@H](c4cnn(C)c4)OC4(CC4)C3)cc2c(=O)n1C (single isomer, unassigned) [Example 146A]",
< 75%,> 1000 nM,"Cc1nc2c(-c3cc(F)c(F)cc3F)nc(N3C[C@H](c4cnn(C)c4)OC4(CC4)C3)cc2c(=O)n1C (single isomer, unassigned) [Example 146B]",
< 75%,10 to 100 nM,"Cc1nc2c(-c3ccc(Cl)cc3F)nc(N3C[C@@H](c4cnn(C)n4)OC(C)(C)C3)cc2c(=O)n1C (single isomer, unassigned) [Example 147A]",
75 to 110%,100 to 1000 nM,"Cc1nc2c(-c3ccc(Cl)cc3F)nc(N3C[C@H](c4cnn(C)n4)OC(C)(C)C3)cc2c(=O)n1C (single isomer, unassigned) [Example 147B]",
< 75%,> 1000 nM,"Cc1nc2c(-c3ccc(Cl)cc3F)nc([C@@H]3C[C@@H]3c3cnn(C)c3)cc2c(=O)n1C (single isomer, unassigned) [Example 148A]",
< 75%,> 1000 nM,"Cc1nc2c(-c3ccc(Cl)cc3F)nc([C@@H]3C[C@H]3c3cnn(C)c3)cc2c(=O)n1C (single isomer, unassigned) [Example 148B]",
75 to 110%,< 1 nM,"Cc1nc2c(-c3ccc(Cl)cc3F)nc(N3C[C@@H](c4cnn(C)c4)OC(F)(F)C3)nc2c(=O)n1C (single isomer, unassigned) [Example 149A]",
< 75%,10 to 100 nM,"Cc1nc2c(-c3ccc(Cl)cc3F)nc(N3C[C@H](c4cnn(C)c4)OC(F)(F)C3)nc2c(=O)n1C (single isomer, unassigned) [Example 149B]",
75 to 110%,10 to 100 nM,"Cc1nc2c(-c3cc(F)c(F)cc3F)nc(N3C[C@@H](c4cnn(C)c4)OC(C)(C)C3)cc2c(=O)n1C (single isomer, unassigned) [Example 150A]",
< 75%,> 1000 nM,"Cc1nc2c(-c3cc(F)c(F)cc3F)nc(N3C[C@H](c4cnn(C)c4)OC(C)(C)C3)cc2c(=O)n1C (single isomer, unassigned) [Example 150B]",
75 to 110%,1 to 10 nM,"Cc1nc2c(-c3ccc(Cl)cc3F)nc(N3C[C@@H](c4cnn(C)c4)OC4(CCC4)C3)cc2c(=O)n1C (single isomer, unassigned) [Example 151A]",
< 75%,100 to 1000 nM,"Cc1nc2c(-c3ccc(Cl)cc3F)nc(N3C[C@H](c4cnn(C)c4)OC4(CCC4)C3)cc2c(=O)n1C (single isomer, unassigned) [Example 151B]",
75 to 110%,100 to 1000 nM,"Cc1nc2c(-c3cc(F)c(F)cc3F)nc(N3C[C@@H](c4cnn(C)c4)OC4(CCC4)C3)cc2c(=O)n1C (single isomer, unassigned) [Example 152A]",
< 75%,> 1000 nM,"Cc1nc2c(-c3cc(F)c(F)cc3F)nc(N3C[C@H](c4cnn(C)c4)OC4(CCC4)C3)cc2c(=O)n1C (single isomer, unassigned) [Example 152B]",
> 110%,1 to 10 nM,"Cc1nc2c(-c3ccc(C(F)(F)F)cc3F)nc([C@@H]3CCO[C@H](c4cnn(C5CC5)c4)C3)cc2c(=O)n1C (single isomer, unassigned) [Example 153A]",
< 75%,100 to 1000 nM,"Cc1nc2c(-c3ccc(C(F)(F)F)cc3F)nc([C@H]3CCO[C@@H](c4cnn(C5CC5)c4)C3)cc2c(=O)n1C (single isomer, unassigned) [Example 153B]",
75 to 110%,< 1 nM,"Cc1cc([C@@H]2CN(c3nc(-c4ccc(F)cc4F)c4nc(C(F)(F)F)n(C)c(=O)c4n3)CCO2)ccn1 (single isomer, unassigned) [Example 154A]",
75 to 110%,10 to 100 nM,"Cc1cc([C@H]2CN(c3nc(-c4ccc(F)cc4F)c4nc(C(F)(F)F)n(C)c(=O)c4n3)CCO2)ccn1 (single isomer, unassigned) [Example 154B]",
75 to 110%,< 1 nM,"Cc1cc([C@@H]2CN(c3nc(-c4cc(F)c(F)cc4F)c4nc(C(F)(F)F)n(C)c(=O)c4n3)CCO2)ccn1 (single isomer, unassigned) [Example 155A]",
75 to 110%,10 to 100 nM,"Cc1cc([C@H]2CN(c3nc(-c4cc(F)c(F)cc4F)c4nc(C(F)(F)F)n(C)c(=O)c4n3)CCO2)ccn1 (single isomer, unassigned) [Example 155B]",
75 to 110%,1 to 10 nM,"Cc1nc2c(-c3ccc(F)cc3F)nc(N3C[C@@H](c4cnn(C)c4)OC(F)(F)C3)nc2c(=O)n1C (single isomer, unassigned) [Example 156A]",
75 to 110%,10 to 100 nM,"Cc1nc2c(-c3ccc(F)cc3F)nc(N3C[C@H](c4cnn(C)c4)OC(F)(F)C3)nc2c(=O)n1C (single isomer, unassigned) [Example 156B]",

# More lines, now with the values behind:
SMILES,Emax [1],EC50,Emax
"Cc1nc2c(-c3ccc(C(F)(F)F)cc3F)nc(N3C[C@H](c4cnn(C)c4)OC(C)(C)C3)cc2c(=O)n1C (single isomer, unassigned) [Example 134B]",< 75%,100 to 1000 nM,
"Cc1cc([C@@H]2CN(c3cc4c(=O)n(C)c(C)nc4c(-c4ccc(Cl)cc4F)n3)CCO2)ccn1 (single isomer, unassigned) [Example 135A]",75 to 110%,1 to 10 nM,
"Cc1cc([C@H]2CN(c3cc4c(=O)n(C)c(C)nc4c(-c4ccc(Cl)cc4F)n3)CCO2)ccn1 (single isomer, unassigned) [Example 135B]",75 to 110%,100 to 1000 nM,
"Cc1cc([C@@H]2CN(c3cc4c(=O)n(C)c(C)nc4c(-c4ccc(F)cc4F)n3)CCO2)ccn1 (single isomer, unassigned) [Example 136A]",75 to 110%,1 to 10 nM,
"Cc1cc([C@H]2CN(c3cc4c(=O)n(C)c(C)nc4c(-c4ccc(F)cc4F)n3)CCO2)ccn1 (single isomer, unassigned) [Example 136B]",< 75%,100 to 1000 nM,
"Cc1cc([C@@H]2CN(c3cc4c(=O)n(C)c(C)nc4c(-c4ccc(C(F)(F)F)cc4F)n3)CCO2)ccn1 (single isomer, unassigned) [Example 137A]",75 to 110%,1 to 10 nM,
"Cc1cc([C@H]2CN(c3cc4c(=O)n(C)c(C)nc4c(-c4ccc(C(F)(F)F)cc4F)n3)CCO2)ccn1 (single isomer, unassigned) [Example 137B]",75 to 110%,100 to 1000 nM,
"Cc1cc([C@@H]2CN(c3cc4c(=O)n(C)c(C)nc4c(-c4ccc(C(F)(F)F)nc4)n3)CCO2)ccn1 (single isomer, unassigned) [Example 138A]",> 110%,10 to 100 nM,
"Cc1cc([C@H]2CN(c3cc4c(=O)n(C)c(C)nc4c(-c4ccc(C(F)(F)F)nc4)n3)CCO2)ccn1 (single isomer, unassigned) [Example 138B]",< 75%,100 to 1000 nM,
"Cc1nc2c(-c3cc(F)c(F)cc3F)nc([C@@H]3CCO[C@H](c4cnn(C5CC5)c4)C3)cc2c(=O)n1C (single isomer, unassigned) [Example 139A]",75 to 110%,10 to 100 nM,
"Cc1nc2c(-c3cc(F)c(F)cc3F)nc([C@H]3CCO[C@@H](c4cnn(C5CC5)c4)C3)cc2c(=O)n1C (single isomer, unassigned) [Example 139B]",< 75%,100 to 1000 nM,
"Cc1nc2c(-c3ccc(Cl)cc3F)nc([C@@H]3CCO[C@H](c4cnn(C5CC5)c4)C3)cc2c(=O)n1C (single isomer, unassigned) [Example 140A]",,100 to 1000 nM,< 75%
"Cc1nc2c(-c3ccc(Cl)cc3F)nc([C@H]3CCO[C@@H](c4cnn(C5CC5)c4)C3)cc2c(=O)n1C (single isomer, unassigned) [Example 140B]",,10 to 100 nM,75 to 110%
"Cc1cc([C@@H]2CN(c3cc4c(=O)n(C)c(C)nc4c(-c4cc(F)c(F)cc4F)n3)CCO2)ccn1 (single isomer, unassigned) [Example 141A]",75 to 110%,10 to 100 nM,
"Cc1cc([C@H]2CN(c3cc4c(=O)n(C)c(C)nc4c(-c4cc(F)c(F)cc4F)n3)CCO2)ccn1 (single isomer, unassigned) [Example 141B]",75 to 110%,10 to 100 nM,
"Cc1nc2c(-c3ccc(Cl)cc3F)cc(N3C[C@@H](c4cnn(C)c4)OC(C)(C)C3)nc2c(=O)n1C (single isomer, unassigned) [Example 142A]",< 75%,100 to 1000 nM,
"Cc1nc2c(-c3ccc(Cl)cc3F)cc(N3C[C@H](c4cnn(C)c4)OC(C)(C)C3)nc2c(=O)n1C (single isomer, unassigned) [Example 142B]",75 to 110%,10 to 100 nM,
"Cc1nc2c(-c3ccc(C(F)(F)F)cc3F)nc(N3C[C@@H](c4cnn(C)c4)OC4(CCC4)C3)cc2c(=O)n1C (single isomer, unassigned) [Example 143A]",75 to 110%,1 to 10 nM,
